Assays:
[1] = system: THP-1 cells; assay: sCD14 acceleration of cholesterol efflux from [3H]cholesterol-labeled THP-1 cells to apo A-I, HDL3 or HDL; assay type: cell-based; conditions: sCD14 5 μg/ml alone or apo A-I 100 μg/ml alone
Experimental: FIG. 2 is a graph showing the kinetics of cholesterol efflux by sCD14 and/or apo A-I. [^3H]cholesterol-labeled THP-1 cells were incubated with or without 5 μg/ml of sCD14 and/or 100 μg/ml of apo A-I in RPMI. Background efflux without proteins at each time was measured and subtracted from other data point. Closed circles, sCD14; open circles, apo A-I; inverted triangles, sCD14 and apo A-L. Data represents the mean of three measurements±SD. The data were repeated with similar results.
FIG. 3 is a graph showing the dose dependent additive effect of sCD14 for cholesterol efflux to apo A-I but not to HDL. [^3 H]cholesterol-labeled TBP-1 cells were incubated in buffer containing 50 μg/ml of apo A-I, HDL3 or HDL with or without the indicated concentration of sCD14 for 1 h. Open bar, without sCD14; hatched bar, 10 μg/ml sCD14; black bar, 25 μg/ml sCD14. Background efflux without proteins at each time was measured and subtracted from other data point. Asterisks show statistical significance compared to the data without sCD14: *, p<0.01; **, p<0.001. Data are representative of three independent experiments with similar results.
The following experiment was performed to determine if sCD14 could facilitate the efflux of cholesterol to its major acceptor, apo A-I (FIG. 2). […]

[2] = system: THP-1 cells; assay: cholesterol efflux from [3H]cholesterol-labeled THP-1 cells mediated by sCD14 or apo A-I; assay type: cell-based
Experimental: FIGS. 1a, 1b and 1c are graphs showing the effect of sCD14 concentration on cholesterol efflux. [^3H]cholesterol-labeled THP-1 cells were incubated with the indicated concentration of sCD14 (closed circles), apo A-I (open circles) or HSA (inverted triangles) in RPMI for 30 min (a and b) or for 20 h (c). Each point represents the mean of three measurements±SD (a) or the average of duplicate samples±range (b and c). Data are representative of five independent experiments with similar results.
[^3H]cholesterol-labeled THP-1 cells were incubated with increasing concentrations of sCD14, apo A-I or the control protein, HSA, and radioactivity in the supernatant was determined. The initial rate of cholesterol efflux was explored in studies of short duration (30 min, FIG. 1a and with extended dose response in FIG. 1b). […] Because of the linear dose-dependence of sCD14-mediated efflux and because no other cholesterol acceptor was present in the incubation, these observations appear most consistent with a direct, low affinity binding of cholesterol to sCD14.
The maximal extent of cholesterol efflux mediated by apo A-I and sCD14 was explored in parallel experiments of 24 hr duration (FIG. 1c). […] However, because of the limiting concentrations of sCD14 in plasma (3-5 μg/ml) and the far greater concentration of apo A-I (˜1 mg/ml), sCD14 per se is unlikely to be a significant reservoir or destination for the cholesterol in plasma.

[3] = system: CD14 mRNA; assay: CD14 mRNA expression by real-time quantitative TaqMan PCR in THP-1 or HepG2 cells; assay type: cell-based, human
Experimental: (§1) FIGS. 5a and 5b are graphs showing that activation of LXR increases mRNA expression of ABCA1 and CD14. THP-1 or HepG2 cells (5×10^5 cells/well) were plated in 6-well plates, and mixed with buffer (open bar) or 22(R)—OH cholesterol (10 μM, closed bar). After overnight incubation (˜16 hr) at 37° C., RNA samples were prepared from the cultured cells, and mRNAs for ABCA1 (a) and CD14 (b) were measured as described in Example 4, below. Results are presented as fold of control (untreated cells), and data are shown as the means±range of duplicate determinations.
(§2) Recent studies indicate that cholesterol efflux from cells is regulated by the transcription factor, LXR, which binds regulatory oxysterols and enhances expression of ABCA1 (see Costet, P., Luo, Y., Wang, N., and Tall, A. R. (2000) J. Biol. Chem. 275, 28240-28245; and Schwartz, K., Lawn, R. M., and Wade, D. P. (2000) Biochem. Biophys. Res. Commun. 274, 794-802.). If CD14 shared with ABCA1 a role in cholesterol efflux from cells, the expression of CD14 might be regulated in parallel with ABCA1 to help achieve cholesterol homeostasis. To test this, cells were incubated with 22(R)-hydroxycholesterol (22R—OH cholesterol), a specific ligand for LXR, and expression of ABCA1 and CD14 mRNA was measured by real time PCR. […] The dose dependence for induction of ABCA1 and CD14 was roughly similar with half-maximal induction observed at ˜10 μM (not shown). Induction of ABCA1 appeared slightly more rapid than that of CD14, but both reached a plateau level by 16 hr. The magnitude of the response of CD14 to 22R—OH cholesterol was less than that observed for ABCA1, but the increase was consistently seen with either of these two cell types. […]
(§3) Real-time quantitative TaqMan PCR analysis (Heid, C. A., Stevens, J., Livak, K. J., and Williams, P. M. (1996) Genome Res. 6, 986-994) was used to determine the relative levels of CD14 and ABCA1 mRNA. […] Sequence-specific amplification was detected with an increased fluorescent signal of FAM (reporter dye) during the amplification cycle. […]

[4] = system: ABCA1 mRNA; assay: ABCA1 mRNA expression by real-time quantitative TaqMan PCR in THP-1 or HepG2 cells; assay type: cell-based, human
Experimental: as §1, §2, §3

[5] = THP-1 monocytes or HepG2, 10 μM, overnight (~16 hr)

Row | Compound | cholesterol efflux by protein alone, kinetic analysis [1] | concentration at which cholesterol efflux is saturable ([2]; 30 min assays, THP-1 cells, no other cholesterol acceptor) | concentration leading to near maximal cholesterol efflux ([2]; 24 hr duration, THP-1 cells) | capacity to mediate cholesterol efflux relative to CD14 ([2]; 24 hr duration, comparison of dose-dependence curves) | time to plateau level of CD14 induction [3] | EC50 ([3]; Homo sapiens, dose dependence (not shown), read-out: half-maximal induction of CD14) | CD14 mRNA expression [3, 5] | time to plateau level of ABCA1 induction [4] | EC50 ([4]; Homo sapiens, dose dependence (not shown), read-out: half-maximal induction of ABCA1) | ABCA1 mRNA expression [4, 5]
1 | apo A-I: apolipoprotein A-I, major acceptor of cellular cholesterol | larger efflux | 10 to 20 µg/mL | 10 µg/mL | 10-20 fold |  |  |  |  |  | 
2 | CC(C)CC[C@@H](O)[C@@H](C)[C@H]1CC[C@H]2[C@@H]3CC=C4C[C@@H](O)CC[C@]4(C)[C@H]3CC[C@]12C [22(R)-hydroxycholesterol] |  |  |  |  | ≤ 16 h | ~10 µM | consistent rise | ≤ 16 h | ~10 µM | consistent rise

From patent US20040071633A1, “Method for determining efficacy of reverse cholesterol transport enhancing agents” (priority 2003, published 2004)
